Patent US20070015723A1, “Antiviral oligonucleotides having a conserved G4 core sequence” (priority 1992, published 2007)
Several values for one entry are separate records, joined by “and”; a condition that tells them apart may be missing. Identical values can stand only once. Like-named read-outs stand apart in the source and are kept apart here. Strand notation (5' to 3'): a small letter for the sugar, then the base; units joined by * are phosphorothioate-linked, units joined directly phosphodiester-linked; [ ] holds rarer units or linkages, { } end groups; capitals alone tell only the bases. d = 2'-deoxy (DNA)

What was measured:
HIV-1IIIB [1] = assay: Acute HIV infection assay (XTT, CEM cells); conditions: for IC50: inhibition of HIV
HSV-1 (KOS) [2] = assay: HSV-1 infection ELISA assay; type: cell-based
HIV-1IIIB [3] = test system: HIV-1IIIB
human cytomegalovirus = assay: Cytomegalovirus inhibition ELISA assay; type: cell-based; conditions: HCMV
[4] = molecular target: T1, human type II phospholipase A2 (Homo sapiens, UniProt P14555); assay: Human type II phospholipase A2 enzyme assay (3H-oleic acid labelled E. coli substrate); type: biochemical
T1 sequence (P14555 21-144): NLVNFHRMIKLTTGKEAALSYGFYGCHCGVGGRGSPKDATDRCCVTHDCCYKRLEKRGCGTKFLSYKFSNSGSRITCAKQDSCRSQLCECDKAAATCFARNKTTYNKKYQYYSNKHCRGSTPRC

CEM cell line [5] = test system: CEM cell line
HSV-1 (KOS) [6] = assay: HSV-1 virus yield assay; type: cell-based; conditions: for anti-HSV activity in virus yield assay: FIG. 2
HSV1-PAAr = assay: microbe, parasite or virus in culture; type: cell-based, HSV-1
HSV1-McKrae = assay: HSV ELISA assay, strain HSV1-McKrae; type: cell-based, HSV-1
HSV1-DM2.1 = assay: microbe, parasite or virus in culture; type: cell-based, HSV-1
HSV-2 = assay: HSV ELISA assay, HSV-2; type: cell-based
HSV1-F = assay: HSV ELISA assay, strain HSV1-F; type: cell-based, HSV-1
[7] = test system: influenza strain A/NWS/33 (H1N1); type: cell-based, influenza virus
[8] = test system: Adenovirus, Type 5 (A-5), strain Adenoid 75; type: cell-based
HSV-1 (KOS) [9] = assay: Effect of time of oligonucleotide addition on HSV-1 inhibition (NHDF cells, ELISA); type: cell-based; set-up: dose or concentration left out as unconfirmed; conditions: added at the time of virus infection (t=0)
vaccinia virus = type: cell-based
[10] = test system: respiratory syncytial virus (RSV) strain Long; type: cell-based
[11] = test system: rhinovirus 2 (R-2), strain HGP; type: cell-based, human rhinovirus
HSV-2 strain E194 = type: cell-based
varicella zoster virus = type: cell-based
HIV = type: cell-based
CEM cell line [12] = assay: Cytotoxicity (TC50) alongside acute HIV infection assay
[13] = test system: Phospholipase A2 isolated from the venom of Trimeresurus flavoridis; assay: Phospholipase A2 enzyme assay, Trimeresurus flavoridis venom enzyme; type: biochemical
[14] = molecular target: Apis mellifera phospholipase A2 (Apis mellifera, UniProt P00630)
[15] = test system: Crotalus durissus terrificus phospholipase A2
[16] = molecular target: Bovine pancreatic phospholipase A2 (Bos taurus, UniProt P00593)
Bovine pancreatic phospholipase A2, sequence (P00593 23-145): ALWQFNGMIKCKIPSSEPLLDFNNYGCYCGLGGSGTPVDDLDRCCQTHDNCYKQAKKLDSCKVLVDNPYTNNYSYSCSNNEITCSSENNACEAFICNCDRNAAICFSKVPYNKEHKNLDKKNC

CD4/gp120 interaction = CD4/gp120 interaction (Human immunodeficiency virus type 1 group M subtype B, UniProt P03375); conditions: ELISA; Callahan et al.; cited from earlier work
[17] = 50% inhibition of HSV replication relative to control infected cells, Table 1
[18] = 1 μM, Table 5, two separate experiments

ISIS 5677: GGGG TT GGGG TT GGGG TT GGGG, P = S, SEQ ID NO 36 (GGGGTTGGGGTTGGGGTTGGGG; all phosphorothioate, sugars by position not given here)
IC50 (HIV-1IIIB [1]): 100 nM and 190 nM | EC50 (HSV-1 (KOS) [2]; [17]): 200 nM | TI (TC50/IC50) (HIV-1IIIB [3]): 146

ISIS 4717: GG GGT TGG GG, P = S, SEQ ID NO 26 (GGGGTTGGGG; all phosphorothioate, sugars by position not given here)
IC50 (HIV-1IIIB [1]): 410 nM | EC50 (HSV-1 (KOS) [2]; [17]): 600 nM | IC50 (human cytomegalovirus): 1000 nM | % Inhibition (1 μM) [4, 18]: 83.1%

ISIS 5366: TTGGGGTTGGGGTTGGGGTTG GGGG, P = S, SEQ ID NO 33 (TTGGGGTTGGGGTTGGGGTTGGGGG; all phosphorothioate, sugars by position not given here)
TC50 (CEM cell line [5]): 22000 nM | IC50 (HIV-1IIIB [1]): 80 nM and 100 nM | EC50 (HSV-1 (KOS) [2]; [17]): 160 nM | IC50 (human cytomegalovirus): 100 nM | TI (TC50/IC50) (HIV-1IIIB [3]): 220

ISIS 5676: GGGG TT GGGG TT GGGG, P = S, SEQ ID NO 39 (GGGGTTGGGGTTGGGG; all phosphorothioate, sugars by position not given here)
IC50 (HIV-1IIIB [1]): 180 nM and 280 nM | EC50 (HSV-1 (KOS) [2]; [17]): 230 nM | anti-HSV activity in virus yield assay (HSV-1 (KOS) [6]): dose-dependent anti-HSV activity | TI (TC50/IC50) (HIV-1IIIB [3]): 114

ISIS 1082: GCCGAGGTCCATGTCGTACGC, SEQ ID NO 134; negative control, complementary to HSV UL13 translation initiation codon, no runs of G (dG*dC*dC*dG*dA*dG*dG*dT*dC*dC*dA*dT*dG*dT*dC*dG*dT*dA*dC*dG*dC)
EC50 (HSV1-PAAr; HSV1-PAAr (resistant to ACV), read-out: EC50): > 3000 nM | EC50 (HSV1-McKrae): > 3000 nM | EC50 (HSV-1 (KOS) [2]; HSV-1 (KOS strain), Table 9, some in duplicate): 2500 nM and 1800 nM | EC50 (HSV-1 (KOS) [2]; HSV-1 (KOS), Table 10): 2100 nM | EC50 (HSV1-DM2.1; HSV1-DM2.1 (resistant to ACV), read-out: EC50): > 3000 nM | EC50 (HSV-2): 2000 nM | EC50 (HSV1-F): > 3000 nM

ISIS 3383: scrambled version of ISIS 1082, SEQ ID NO: 122; negative control oligonucleotide (TGGGCACGTGCCTGACACGGC; chemistry not given here)
ED50 [7]: 19000 nM | TI [7]: >5 | ED50 [8]: >100000 nM | inhibition of HSV replication (HSV-1 (KOS) [9]): inhibited HSV replication | ED50 (vaccinia virus): >100000 nM | ED50 [10]: 700 nM | TI [10]: 60 | ED50 [11]: >100000 nM | ED50 (HSV-2 strain E194): 2800 nM | TI (HSV-2 strain E194): >36

Nc1nc2c(ncn2COCCO)c(=O)[nH]1 [ACV, 9-(2-hydroxyethoxymethyl)guanine]
EC50 (HSV1-PAAr; Human alphaherpesvirus 1): > 3000 nM | EC50 (HSV1-McKrae; Human alphaherpesvirus 1): 1800 nM | EC50 (HSV1-DM2.1; Human alphaherpesvirus 1): > 3000 nM | EC50 (HSV-2; Human alphaherpesvirus 2): 2000 nM | ED50 (HSV-2 strain E194): 97700 nM | EC50 (HSV1-F; Human alphaherpesvirus 1): 700 nM

ISIS 5653: TT GGGG TT GGGG TT GGGG, P = S, SEQ ID NO 38 (TTGGGGTTGGGGTTGGGG; all phosphorothioate, sugars by position not given here)
TC50 (CEM cell line [5]): 27000 nM | IC50 (HIV-1IIIB [1]): 120 nM | EC50 (HSV-1 (KOS) [2]; [17]): 200 nM | anti-HSV activity in virus yield assay (HSV-1 (KOS) [6]): dose-dependent anti-HSV activity

NC(=O)c1ncn([C@@H]2O[C@H](CO)[C@@H](O)[C@H]2O)n1 [Ribavirin]
ED50 [7]: 7780 nM | ED50 [8]: 82000 nM | ED50 [10]: 49000 nM | ED50 [11]: 229000 nM

ISIS 5652: TT GGGG TT GGGG TT GGGG TT, P = S, SEQ ID NO 37 (TTGGGGTTGGGGTTGGGGTT; all phosphorothioate, sugars by position not given here)
ED50 [7]: 600 nM | TI [7]: 93 | ED50 [8]: >100000 nM | TI [8]: <1.0 | TI (TC50/IC50) (HIV-1IIIB [1]): 227 | IC50 (HIV-1IIIB [1]): 100 nM and 180 nM | EC50 (HSV-1 (KOS) [2]; [17]): 160 nM | ED50 (varicella zoster virus): 18000 nM | anti-HSV activity in virus yield assay (HSV-1 (KOS) [6]): dose-dependent anti-HSV activity | ED50 [10]: 1900 nM | TI [10]: >53 | ED50 [11]: >100000 nM | ED50 (HIV): 180 nM | TI (HIV): 227 | ED50 (HSV-2 strain E194): 300 nM | TI (HSV-2 strain E194): >333

ISIS 4721: CAC GGG GTC G, P = S, SEQ ID NO 32 (CACGGGGTCG; all phosphorothioate, sugars by position and methylation of C not given here)
TI (TC50/IC50) (HIV-1IIIB [1]): 546 | IC50 (HIV-1IIIB [1]): 210 nM and 260 nM | EC50 (HSV-1 (KOS) [2]; [17]): 400 nM | TC50 (CEM cell line [12]): 142000 nM

ISIS 5675: TT GGGG TT GGGG TT, P = S, SEQ ID NO 40 (TTGGGGTTGGGGTT; all phosphorothioate, sugars by position not given here)
TC50 (CEM cell line [5]): 14000 nM | IC50 (HIV-1IIIB [1]): 380 nM | EC50 (HSV-1 (KOS) [2]; [17]): 420 nM | TI (TC50/IC50) (HIV-1IIIB [3]): 36

ISIS 3196: GGG T GGG T ATA G AAG G GCT CC, P = S, SEQ ID NO 47 (GGGTGGGTATAGAAGGGCTCC; all phosphorothioate, sugars by position and methylation of C not given here)
IC50 [13]: > 10000 nM | IC50 [14]: > 100000 nM | IC50 [15]: ~300 nM | IC50 [16]: ~100000 nM | EC50 (HSV-1 (KOS) [2]; [17]): 200 nM | inhibition of human type II phospholipase A2 ([4]; 1 μM): completely inhibited | % Inhibition (1 μM) ([4]; 1 μM, Table 4): 98.5% | % Inhibition (1 μM) [4, 18]: 100% and 76.2% | IC50 ([4]; FIG. 5): ~150 nM | effect on substrate kinetics ([4]; increasing E. coli substrate, ISIS 3481 at 0.2 μM and 2 μM): apparent noncompetitive inhibitor | inhibitory activity (% inhibition) ([4]; not boiled): 94% | inhibitory activity (% inhibition) ([4]; placed in boiling water for 15 minutes prior to assay): 21%

ISIS 5674: TT GGGG TT GGGG, P = S, SEQ ID NO 41 (TTGGGGTTGGGG; all phosphorothioate, sugars by position not given here)
TC50 (CEM cell line [5]): >200000 nM | IC50 (HIV-1IIIB [1]): 430 nM | EC50 (HSV-1 (KOS) [2]; [17]): 1500 nM

Dextran sulfate
effect on the gp120/CD4 interaction (CD4/gp120 interaction): does not prevent the gp120/CD4 interaction

ISIS 5651: TT GGGG TT GGGG TT GGGG TT GGGG, P = S, SEQ ID NO 35 (TTGGGGTTGGGGTTGGGGTTGGGG; all phosphorothioate, sugars by position not given here)
IC50 (HIV-1IIIB [1]): 100 nM and 180 nM | EC50 (HSV-1 (KOS) [2]; [17]): 170 nM | anti-HSV activity in virus yield assay (HSV-1 (KOS) [6]): dose-dependent anti-HSV activity | antiviral activity in virus yield assay (HSV-1 (KOS) [6]; dose of 3 mM, FIG. 1): greater antiviral activity than did Acyclovir | TI (TC50/IC50) (HIV-1IIIB [3]): 175

ISIS 4560: GGGG C GGGG C GGGG C GGGG C G, P = S, SEQ ID NO 42 (dG*dG*dG*dG*dC*dG*dG*dG*dG*dC*dG*dG*dG*dG*dC*dG*dG*dG*dG*dC*dG)
IC50 (HIV-1IIIB [1]): 140 nM | EC50 (HSV-1 (KOS) [2]; [17]): 180 nM | IC50 (human cytomegalovirus): 150 nM | % Inhibition (1 μM) ([4]; 1 μM, Table 4): 100%

Nc1ncnc2c1ncn2[C@@H]1O[C@H](CO)[C@@H](O)[C@@H]1O [Ara-A, 9-(β-D-arabinofuranosyl)adenine]
ED50 (vaccinia virus; Vacc): 15800 nM
